Results on four compounds are retold here after patent EP4643843A1, “A COSMETIC OIL IN WATER EMULSION COMPOSITION COMPRISING APPLE JUICE” (Ledniowski, Dariusz, priority 2024, dated 2025).

The subject of one series is Epiderm human skin model. To be noted: pH 7.4.
The test system of a further series is Aquaporin 3. To be noted: skin substitute EpiDermFT; cited from earlier work.
Another series has as its system E-cadherin. To be noted: skin substitute EpiDermFT; cited from earlier work.
For a further series, the system named is collagenase. To be noted: cited from earlier work.
Another series deals with rat brain homogenates. To be noted: cited from earlier work.
For a further series, the system named is elastase. To be noted: relative to retinol; cited from earlier work.

Description for Epiderm human skin model: The irritant potential of the extract was evaluated in vitro, by the colorimetric method (MTT), using the reconstructed epidermis model "EpiDerm® (MatTek Corporation).
In order to determine the safety of birch extract in cosmetics, a method was used to determine the irritant potential using the Epiderm human skin model, which contains a multilayered differentiated epidermis. In this method, the exposure time at which a 50% reduction in the number of viable cells (ET50) occurs is assessed. This number is assessed by measuring the reduction of MTT - 3-(4,5-dimethylthiaz-2-yl)-2-5-diphenyltetrazolium bromide). Formazan, which is blue-violet in colour, is formed as a result of mitochondrial metabolism. Formazan formation allows assessment of the number of cells that have been damaged. A chemical is classified as an irritant if the cell survival rate relative to a negative sample (containing neutral solvent) is below 50%.
The test consisted of applying an appropriate amount of a solution of the test compound to the surface of the epidermis model. Birch extract solutions of 0.25 per cent and 0.5 per cent by weight were prepared, corresponding to the content of this active ingredient in cosmetic preparations. […]

For the compound `CCCCCCCCCCCCOS(=O)(=O)[O-].[Na+]` [SLS], the “Relative cell viability [%]” value with Epiderm human skin model is 6.03%.
For the compound `CC1=C(/C=C/C(C)=C/C=C/C(C)=C/CO)C(C)(C)CCC1` [Retinol], the AQP3 gene expression in the series on Aquaporin 3 is given as 3.5. Besides, the CDH1 gene expression in the series with E-cadherin was 9.4. Also, the “inhibits collagenase, effectiveness” value in the series with collagenase was “not affected at all”.
For the compound `C=C[C@@](C)(/C=C/c1ccc(OC)cc1)CCC=C(C)C` [O-methylbakuchiol], the lipid peroxidation result in the series with rat brain homogenates is given as “inhibited”.
Regarding `C=C[C@@](C)(/C=C/c1ccc(O)cc1)CCC=C(C)C` [Bakuchiol], the AQP3 gene expression in the series on Aquaporin 3 is reported as 4.3. Besides, in the series on elastase, the “inhibits elastase, compared with retinol” value is “almost nine times more strongly than retinol”. Besides, the CDH1 gene expression with E-cadherin is 21.6. For the same compound, in the series with collagenase, the “inhibits collagenase, effectiveness” value is 50%.
